Source: patent publication US12209102B2, “Heterocyclic compounds and uses thereof” (Kumquat Biosciences Inc., priority 2022, dated 2025)

Legend:
GP2D cells = experiment: Ras cellular assay, growth of cells with K-Ras G12D mutation (CellTiter-Glo); assay type: cell-based; settings: cell growth, Example 9, G12D mutation, read-out: IC50 against GP2D cells
A549 cells = experiment: Ras cellular assay, growth of cells with K-Ras G12S mutation (CellTiter-Glo); assay type: cell-based; settings: Homo sapiens, cell growth, Example 9, G12S mutation, read-out: IC50 against A549 cells
Procedure, shortened: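 A549 cells (K-Ras G12S) in RPMI-1640 with 10% heat-inactivated FBS, seeded e.g. 800 per well in standard or ultra-low-attachment 384-well plates, treated next day with a dilution series (e.g. 10-point, 3-fold). Viability by CellTiter-Glo luminescence about 6 days later; IC50 from four-parameter fit.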

K-Ras G12D = target: T1, K-Ras G12D (Homo sapiens, UniProt P01116, G12D); experiment: HTRF resonance energy transfer assay, K-Ras G12D / SOS1 interaction; assay type: biochemical; settings: HTRF assay of Example 5; read-out: IC50 against K-Ras G12D
T1 construct: made in house; host or cells: E. coli BL21 (DE3)
Procedure, shortened: (§1)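 Read-out: HTRF 665/620 nm ratio (excitation 337 nm) after roughly 10 min or longer incubation, used to derive IC50. Donor anti-GST-Eu on GST-K-Ras; acceptor anti-6His-XL665 on His-hSOS1. Duplicate dose series from 10 μM down to 0.01 μM.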

K-Ras G12S = target: T2, K-Ras G12S (Homo sapiens, UniProt P01116, G12S); experiment: HTRF resonance energy transfer assay, K-Ras G12S / SOS1 interaction; assay type: biochemical; settings: HTRF assay of Example 5; read-out: IC50 against K-Ras G12S
T2 construct: made in house; host or cells: E. coli BL21 (DE3)
Procedure, shortened: as §1

K-Ras G12V = target: T3, K-Ras G12V (Homo sapiens, UniProt P01116, G12V); experiment: HTRF resonance energy transfer assay, K-Ras G12V / SOS1 interaction; assay type: biochemical; settings: HTRF assay of Example 5; read-out: IC50 against K-Ras G12V
T3 construct: made in house; host or cells: E. coli BL21 (DE3)
Procedure, shortened: as §1

K-Ras WT = target: T4, K-Ras WT (Homo sapiens, UniProt P01116); experiment: HTRF resonance energy transfer assay, K-Ras WT / SOS1 interaction; assay type: biochemical; settings: HTRF assay of Example 5; read-out: IC50 against K-Ras WT
T4 construct: made in house; host or cells: E. coli BL21 (DE3)
Procedure, shortened: as §1

SW620 cells = experiment: Ras cellular assay, growth of cells with K-Ras G12V mutation (CellTiter-Glo); assay type: cell-based; settings: Homo sapiens, SW-620; cell growth, Example 9, G12V mutation; read-out: IC50 against SW620 cells
Procedure, shortened: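 SW620 (K-Ras G12V) cells, e.g. 800/well in RPMI-1640 with 10% heat-inactivated FBS on standard or ultra-low attachment plates, were dosed the day after plating with e.g. a 10-point 3-fold series. Viability by CellTiter-Glo luminescence about 6 days later; IC50 from four-parameter fit.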

T1 sequence (P01116 1-188 isoform P01116-2 G12D): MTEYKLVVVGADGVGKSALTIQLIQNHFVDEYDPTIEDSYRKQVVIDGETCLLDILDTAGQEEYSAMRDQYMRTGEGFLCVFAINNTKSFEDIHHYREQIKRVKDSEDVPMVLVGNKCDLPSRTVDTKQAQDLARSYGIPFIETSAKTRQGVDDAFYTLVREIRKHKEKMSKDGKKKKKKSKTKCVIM
T4 sequence (P01116 1-188 isoform P01116-2): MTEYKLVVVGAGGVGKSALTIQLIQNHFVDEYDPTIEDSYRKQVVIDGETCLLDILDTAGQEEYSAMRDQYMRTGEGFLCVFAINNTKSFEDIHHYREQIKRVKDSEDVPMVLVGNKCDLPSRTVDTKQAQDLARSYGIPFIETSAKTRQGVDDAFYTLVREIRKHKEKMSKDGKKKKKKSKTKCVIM
T3 sequence (P01116 1-188 isoform P01116-2 G12V): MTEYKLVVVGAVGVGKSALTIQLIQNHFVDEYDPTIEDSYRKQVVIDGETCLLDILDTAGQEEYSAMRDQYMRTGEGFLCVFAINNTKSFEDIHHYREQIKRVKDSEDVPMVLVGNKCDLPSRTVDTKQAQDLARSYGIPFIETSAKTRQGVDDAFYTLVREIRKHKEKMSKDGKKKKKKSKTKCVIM
T2 sequence (P01116 1-188 isoform P01116-2 G12S): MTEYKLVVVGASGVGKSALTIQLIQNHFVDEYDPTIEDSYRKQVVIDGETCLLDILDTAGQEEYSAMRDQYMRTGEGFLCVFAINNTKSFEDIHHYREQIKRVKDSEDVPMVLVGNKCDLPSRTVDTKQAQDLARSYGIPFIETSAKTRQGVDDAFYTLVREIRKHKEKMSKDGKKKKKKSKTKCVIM

Row | SMILES | IC50 (GP2D cells) [nM] | IC50 (A549 cells) [µM] | IC50 (K-Ras G12D) [nM] | IC50 (K-Ras G12S) [nM] | IC50 (K-Ras G12V) [nM] | IC50 (K-Ras WT) [nM] | IC50 (SW620 cells) [µM]
1 | CN(C)C(=O)C1CC(N2CCOc3c(Cl)c(-c4ccc(F)c5sc(N)c(C#N)c45)c(F)c4nc(OC[C@@]56CCCN5C[C@H](F)C6)nc2c34)C1 (single isomer, unassigned) [Compound 640] | < 500 | < 5 |  |  |  |  | 
2 | CC1COc2c(Cl)c(-c3ccc(F)c4sc(N)c(C#N)c34)c(F)c3nc(OC[C@@]45CCCN4C[C@H](F)C5)nc(c23)N1CC(F)F (single isomer, unassigned) [Compound 1073] | < 500 | < 5 |  |  |  |  | 
3 | N#Cc1c(N)sc2c(F)ccc(-c3c(Cl)c4c5c(nc(OC[C@@]67CCCN6C[C@H](F)C7)nc5c3F)N(CCC(F)F)[C@@H](C(F)F)CO4)c12 [Compound 1035, 2-amino-4-((R)-8-chloro-5-(difluoromethyl)-4-(3,3-difluoropropyl)-10-fluoro-2-(((2R,7aS)-2-fluorotetrahydro-1H-pyrrolizin-7a(5H)-yl)methoxy)-5,6-dihydro-4H-[1,4]oxazepino[5,6,7-de]quinazolin-9-yl)-7-fluorobenzo[b]thiophene-3-carbonitrile] | < 500 |  | < 100 | < 100 | < 100 | < 100 | < 5
4 | CC(C)(O)[C@H]1COc2c(Cl)c(-c3ccc(F)c4sc(N)c(C#N)c34)c(F)c3nc(OC[C@@]45CCCN4C[C@H](F)C5)nc(c23)N1C1CCOC1 (stereo partly drawn) [Compound 1041, 2-amino-4-((5R)-8-chloro-10-fluoro-2-(((2R,7aS)-2-fluorotetrahydro-1H-pyrrolizin-7a(5H)-yl)methoxy)-5-(2-hydroxypropan-2-yl)-4-(tetrahydrofuran-3-yl)-5,6-dihydro-4H-[1,4]oxazepino[5,6,7-de]quinazolin-9-yl)-7-fluorobenzo[b]thiophene-3-carbonitrile] | < 500 |  | < 100 | < 100 | < 100 | < 100 | < 5
5 | C[C@H](O)[C@H]1[C@H](C)Oc2c(Cl)c(-c3ccc(F)c4sc(N)c(C#N)c34)c(F)c3nc(OC[C@@]45CCCN4C[C@H](F)C5)nc(c23)N1CC(F)F [Compound 1042, 2-amino-4-((5S,6S)-8-chloro-4-(2,2-difluoroethyl)-10-fluoro-2-(((2R,7aS)-2-fluorotetrahydro-1H-pyrrolizin-7a(5H)-yl)methoxy)-5-((S)-1-hydroxyethyl)-6-methyl-5,6-dihydro-4H-[1,4]oxazepino[5,6,7-de]quinazolin-9-yl)-7-fluorobenzo[b]thiophene-3-carbonitrile] | < 500 |  | < 100 | < 100 | < 100 | < 100 | < 5
6 | CC(C)(O)C1COc2c(Cl)c(-c3ccc(F)c4sc(N)c(C#N)c34)c(F)c3nc(OC[C@@]45CCCN4C[C@H](F)C5)nc(c23)N1CCC(F)F (stereo partly drawn) [Compound 1050, 2-amino-4-(8-chloro-4-(3,3-difluoropropyl)-10-fluoro-2-(((2R,7aS)-2-fluorotetrahydro-1H-pyrrolizin-7a(5H)-yl)methoxy)-5-(2-hydroxypropan-2-yl)-5,6-dihydro-4H-[1,4]oxazepino[5,6,7-de]quinazolin-9-yl)-7-fluorobenzo[b]thiophene-3-carbonitrile] | < 500 |  | < 100 | < 100 | < 100 | < 100 | < 5
7 | N#Cc1c(N)sc2c(F)ccc(-c3c(Cl)c4c5c(nc(OC[C@@]67CCCN6C[C@H](F)C7)nc5c3F)N([C@H]3CNC[C@H]3F)CCO4)c12 [Compound 1070, 2-amino-4-(8-chloro-10-fluoro-4-((3S,4R)-4-fluoropyrrolidin-3-yl)-2-(((2R,7aS)-2-fluorotetrahydro-1H-pyrrolizin-7a(5H)-yl)methoxy)-5,6-dihydro-4H-[1,4]oxazepino[5,6,7-de]quinazolin-9-yl)-7-fluorobenzo[b]thiophene-3-carbonitrile] | < 500 |  | < 100 | < 100 | < 100 | < 100 | < 5
8 | N#Cc1c(N)sc2c(F)ccc(-c3c(Cl)c4c5c(nc(OC[C@@]67CCCN6C[C@H](F)C7)nc5c3F)N[C@@H](C3(O)CC3)CO4)c12 [Compound 1076, 2-amino-4-((R)-8-chloro-10-fluoro-2-(((2R,7aS)-2-fluorotetrahydro-1H-pyrrolizin-7a(5H)-yl)methoxy)-5-(1-hydroxycyclopropyl)-5,6-dihydro-4H-[1,4]oxazepino[5,6,7-de]quinazolin-9-yl)-7-fluorobenzo[b]thiophene-3-carbonitrile] | < 500 |  | < 100 | < 100 | < 100 | < 100 | < 5
9 | CN1c2nc(OC[C@@]34CCCN3C[C@H](F)C4)nc3c(F)c(-c4ccc(F)c5sc(N)c(C#N)c45)c(Cl)c(c23)OC[C@@H]1CNC=O [Compound 1097, N-(((5S)-9-(2-amino-3-cyano-7-fluorobenzo[b]thiophen-4-yl)-8-chloro-10-fluoro-2-(((2R,7aS)-2-fluorotetrahydro-1H-pyrrolizin-7a(5H)-yl)methoxy)-4-methyl-5,6-dihydro-4H-[1,4]oxazepino[5,6,7-de]quinazolin-5-yl)methyl)formamide] | < 500 |  | < 100 | < 100 | < 100 | < 100 | < 5
10 | CC(O)C1COc2c(Cl)c(-c3ccc(F)c4sc(N)c(C#N)c34)c(F)c3nc(OC[C@@]45CCCN4C[C@H](F)C5)nc(c23)N1CC1CCNCC1 (stereo partly drawn) [Compound 1125, 2-amino-4-(8-chloro-10-fluoro-2-(((2R,7aS)-2-fluorotetrahydro-1H-pyrrolizin-7a(5H)-yl)methoxy)-5-(1-hydroxyethyl)-4-(piperidin-4-ylmethyl)-5,6-dihydro-4H-[1,4]oxazepino[5,6,7-de]quinazolin-9-yl)-7-fluorobenzo[b]thiophene-3-carbonitrile] | < 500 |  | < 100 | < 100 | < 100 | < 100 | < 5
11 | C[C@@H]1CCOc2c(Cl)c(-c3ccc(F)c4sc(N)c(C#N)c34)c(F)c3nc(OC[C@@]45CCCN4C[C@H](F)C5)nc(c23)N1 [Compound 1219, 2-amino-4-((5R)-9-chloro-11-fluoro-2-(((2R,7aS)-2-fluorotetrahydro-1H-pyrrolizin-7a(5H)-yl)methoxy)-5-methyl-4,5,6,7-tetrahydro-[1,5]oxazocino[4,3,2-de]quinazolin-10-yl)-7-fluorobenzo[b]thiophene-3-carbonitrile] | < 500 |  | < 100 | < 100 | < 100 | < 100 | < 5
12 | C[C@@H]1CCOc2c(Cl)c(-c3ccc(F)c4sc(N)c(C#N)c34)c(F)c3nc(OC[C@@]45CCCN4C[C@H](F)C5)nc(c23)N1C [Compound 1222, 2-amino-4-((R)-9-chloro-11-fluoro-2-(((2R,7aS)-2-fluorotetrahydro-1H-pyrrolizin-7a(5H)-yl)methoxy)-4,5-dimethyl-4,5,6,7-tetrahydro-[1,5]oxazocino[4,3,2-de]quinazolin-10-yl)-7-fluorobenzo[b]thiophene-3-carbonitrile] | < 500 |  | < 100 | < 100 | < 100 | < 100 | < 5
